Data set [1] in a line: Displacement of [3H]12-O-tetradecanoyl-phorbol-13-acetate from TPA receptor.
The species entered for another data set is Mus musculus. The data set can be described thus: Toxicity in mouse by ear irritant test. In kind it is organism-based. The settings on record: in vivo.

Consider `C=C[C@@](C)(CCC(O)C(=C)C)c1ccc2c3c(c[nH]c13)C[C@@H](CO)NC(=O)[C@H](C(C)C)N2C` (some centres undefined) [LYNGBYATOXI B], for which the ED50 in data set [1] came to 2200 nM. For the same compound, the Activity result in the data set listed under Mus musculus is reported as “Toxic”.
In the case of `C=C[C@@](C)(C/C=C/C(C)(C)O)c1ccc2c3c(c[nH]c13)C[C@@H](CO)NC(=O)[C@H](C(C)C)N2C` [LYNGBYATOXIN C], in data set [1], the ED50 was determined as 200 nM. For the same compound, the Activity entry in the data set listed under Mus musculus is listed as “Toxic”.

For the origin of these results see ChEMBL document CHEMBL1150190, “Lyngbyatoxins B and C, two new irritants from Lyngbya majuscula” (J Nat Prod, 1990).
